Reference: patent US7205295B2, “Benzoxazin-3-ones and derivatives thereof as therapeutic agents” (Warner-Lambert Company LLC, priority 2002, dated 2007)
Structures can show the parent of a compound that is named as a salt.

What follows are molecules tested against T1, PI3Kγ (p101/p110γ protein) (Homo sapiens, UniProt P48736) (assay: PI3Kγ In Vitro Kinase Assay). Conditions: purified recombinant p101/p110γ with G protein β1/γ2 subunits; 20 μM ATP, 25 μM PIP2; 20 minutes at room temperature.
T1 construct: HA; made in house; host or cells: Spodoptera frugiperda (Sf9) cells, baculovirus co-infection
Format: biochemical
Summary of the method: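 Reactions ran 20 min at room temperature, pairing lipid micelles (25 μM PIP2, 300 μM PE, 0.02% Na-cholate, 10 mM MgCl2) with 20 μM ATP including [γ-32P]ATP. The enzyme was recombinant p101/p110γ (2.7 nM) with G protein β1/γ2 (57.7 nM). [32P]PIP3 product was stopped with H3PO4, filtered and scintillation counted.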

T1 sequence (P48736 whole entry, species assumed): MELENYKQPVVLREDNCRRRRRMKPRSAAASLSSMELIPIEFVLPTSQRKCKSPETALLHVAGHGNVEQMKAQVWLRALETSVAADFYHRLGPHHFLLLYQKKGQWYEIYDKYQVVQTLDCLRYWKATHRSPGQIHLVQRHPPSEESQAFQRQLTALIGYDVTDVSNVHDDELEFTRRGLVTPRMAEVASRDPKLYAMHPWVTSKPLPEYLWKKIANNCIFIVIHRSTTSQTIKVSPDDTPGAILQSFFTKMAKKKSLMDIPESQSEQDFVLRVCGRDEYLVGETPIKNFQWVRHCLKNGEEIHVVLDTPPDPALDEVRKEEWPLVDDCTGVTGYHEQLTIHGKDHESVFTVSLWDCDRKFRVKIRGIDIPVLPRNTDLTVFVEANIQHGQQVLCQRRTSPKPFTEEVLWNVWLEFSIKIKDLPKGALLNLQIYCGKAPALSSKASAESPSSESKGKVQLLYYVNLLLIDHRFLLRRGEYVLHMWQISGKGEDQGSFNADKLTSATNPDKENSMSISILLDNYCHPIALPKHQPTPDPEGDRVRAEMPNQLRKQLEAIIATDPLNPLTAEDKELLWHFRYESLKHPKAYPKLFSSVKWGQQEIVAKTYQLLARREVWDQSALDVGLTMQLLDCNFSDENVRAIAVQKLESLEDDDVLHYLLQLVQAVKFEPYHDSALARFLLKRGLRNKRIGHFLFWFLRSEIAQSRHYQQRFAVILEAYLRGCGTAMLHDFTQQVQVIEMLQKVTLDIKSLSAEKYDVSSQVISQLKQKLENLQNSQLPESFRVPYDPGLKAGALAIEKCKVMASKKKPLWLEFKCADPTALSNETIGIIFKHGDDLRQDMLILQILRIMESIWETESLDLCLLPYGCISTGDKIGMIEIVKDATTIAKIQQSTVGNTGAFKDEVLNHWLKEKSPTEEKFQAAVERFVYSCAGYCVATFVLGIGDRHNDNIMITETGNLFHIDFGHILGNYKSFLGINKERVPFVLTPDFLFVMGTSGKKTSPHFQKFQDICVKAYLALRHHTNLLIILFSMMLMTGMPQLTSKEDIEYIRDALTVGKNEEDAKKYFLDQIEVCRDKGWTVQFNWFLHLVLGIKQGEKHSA
T1 sequence (Q8WYR1 whole entry partner, species assumed): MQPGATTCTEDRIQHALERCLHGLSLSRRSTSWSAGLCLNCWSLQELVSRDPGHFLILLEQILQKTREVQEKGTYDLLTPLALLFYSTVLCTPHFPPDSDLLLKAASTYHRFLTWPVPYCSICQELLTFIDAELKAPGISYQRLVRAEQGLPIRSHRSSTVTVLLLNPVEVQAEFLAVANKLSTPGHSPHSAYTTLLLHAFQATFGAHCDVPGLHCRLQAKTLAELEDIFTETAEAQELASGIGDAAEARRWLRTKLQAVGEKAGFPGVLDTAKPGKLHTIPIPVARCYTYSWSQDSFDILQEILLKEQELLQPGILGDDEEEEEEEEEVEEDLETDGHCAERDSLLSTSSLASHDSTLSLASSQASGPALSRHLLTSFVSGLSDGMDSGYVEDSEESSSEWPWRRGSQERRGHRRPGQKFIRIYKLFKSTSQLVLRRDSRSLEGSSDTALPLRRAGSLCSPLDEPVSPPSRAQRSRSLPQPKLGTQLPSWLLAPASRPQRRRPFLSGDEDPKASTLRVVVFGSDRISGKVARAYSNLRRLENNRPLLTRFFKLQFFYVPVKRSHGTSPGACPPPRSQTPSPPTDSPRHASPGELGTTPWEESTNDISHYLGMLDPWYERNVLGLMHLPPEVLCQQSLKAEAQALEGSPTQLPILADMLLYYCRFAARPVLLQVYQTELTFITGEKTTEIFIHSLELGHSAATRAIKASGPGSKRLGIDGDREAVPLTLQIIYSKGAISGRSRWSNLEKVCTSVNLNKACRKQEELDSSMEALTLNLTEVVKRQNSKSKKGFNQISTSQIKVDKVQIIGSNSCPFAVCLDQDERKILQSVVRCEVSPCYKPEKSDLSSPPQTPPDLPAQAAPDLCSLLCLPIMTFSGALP

IC50	Compound
61 nM	O=C1NC(=S)SC1=Cc1ccc2c(c1)N(Cc1ccc3ccccc3c1)C(=O)CO2 [Example 11, 4-Naphthalen-2-ylmethyl-6-(4-oxo-2-thioxo-thiazolidin-5-ylidenemethyl)-4H-1,4-benzoxazin-3-one]
57 nM	CCN(CC)Cc1ccc(CN2C(=O)COc3c(Cl)cc(C=C4SC(=S)NC4=O)cc32)cc1 [Example 78, 8-Chloro-4-(4-diethylaminomethyl-benzyl)-6-(4-oxo-2-thioxo-thiazolidin-5-ylidenemethyl)-4H-1,4-benzoxazin-3-one]
60 nM	O=C1COc2ccc(C=C3OC(=S)NC3=O)cc2N1 [Example 84, 6-(4-Oxo-2-thioxo-oxazolidin-5-ylidenemethyl)-4H-benzo[1,4]oxazin-3-one]
3180 nM	CC(C)(C)OC(=O)N1CCN(C(=O)CN2C(=O)COc3ccc(C=C4SC(=S)NC4=O)cc32)CC1 [Example 214, 4-{2-[3-Oxo-6-(4-oxo-2-thioxo-thiazolidin-5-ylidenemethyl)-2,3-dihydro-1,4-benzoxazin-4-yl]-acetyl}-piperazine-1-carboxylic acid tert-butyl ester]
21 nM	CC(=O)OCc1cc(CN2C(=O)COc3c(F)cc(/C=C4\SC(=S)NC4=O)cc32)cc(C(C)(C)C)c1 [Example 285, Acetic acid 3-tert-butyl-5-{8-fluoro-3-oxo-6-[4-oxo-2-thioxo-thiazolidin-(5Z)-ylidenemethyl]-2,3-dihydro-benzo[1,4]oxazin-4-ylmethyl}-benzyl ester]
35 nM	O=C1NC(=S)S/C1=C\c1ccc2c(c1)N(Cc1ccc(C(=O)O)cc1)C(=O)CO2 [Example 288, 4-{3-oxo-6-[4-oxo-2-thioxo-thiazolidin-(5Z)-ylidenemethyl]-2,3-dihydro-benzo[1,4]oxazin-4-ylmethyl}-benzoic acid; Compound with ethane-1,2-diamine]
4 nM	O=C1NC(=S)SC1=Cc1ccc2c(c1)N(Cc1cc(F)c(O)c(F)c1)C(=O)CO2 [Example 295, 4-(3,5-Difluoro-4-hydroxy-benzyl)-6-(4-oxo-2-thioxo-thiazolidin-5-ylidenemethyl)-4H-benzo[1,4]oxazin-3-one]
9 nM	O=C1NC(=S)SC1=Cc1ccc2c(c1)N(Cc1ccccc1)C(=O)CO2 [Example 180, 4-Benzyl-6-(4-oxo-2-thioxo-thiazolidin-5-ylidenemethyl)-4H-1,4-benzoxazin-3-one]
6 nM	CS(=O)(=O)c1ccc(CN2C(=O)COc3ccc(C=C4SC(=S)NC4=O)cc32)cc1 [Example 193, 4-(4-Methanesulfonyl-benzyl)-6-(4-oxo-2-thioxo-thiazolidin-5-ylidenemethyl)-4H-1,4-benzoxazin-3-one, Potassium Salt]
165 nM	COc1ccc(CN2C(=O)COc3ccc(C=C4SC(=S)NC4=O)cc32)cc1 [Example 182, 4-(4-Methoxy-benzyl)-6-(4-oxo-2-thioxo-thiazolidin-5-ylidenemethyl)-4H-1,4-benzoxazin-3-one]
43 nM	O=C1COc2c(F)cc(C=C3SC(=S)NC3=O)cc2N1 [Example 53, 8-Fluoro-6-(4-oxo-2-thioxo-thiazolidin-5-ylidenemethyl)-4H-1,4-benzoxazin-3-one]
23 nM	O=C1NC(=S)SC1=Cc1ccc2c(c1)N(Cc1ccccc1)C(=O)CO2 [Example 4, 4-Benzyl-6-(4-oxo-2-thioxo-thiazolidin-5-ylidenemethyl)-4H-1,4-benzoxazin-3-one]
20 nM	O=C1NC(=S)SC1=Cc1ccc2c(c1)N(Cc1ccc3ccccc3c1)C(=O)CO2 [Example 188, 4-Naphthalen-2-ylmethyl-6-(4-oxo-2-thioxo-thiazolidin-5-ylidenemethyl)-4H-1,4-benzoxazin-3-one]
18 nM	CC(C)(C)c1cccc(CN2C(=O)COc3ccc(C=C4SC(=S)NC4=O)cc32)c1 [Example 263, 4-(3-tert-Butyl-benzyl)-6-(4-oxo-2-thioxo-thiazolidin-5-ylidenemethyl)-4H-1,4-benzoxazin-3-one]
1 nM	O=C1NC(=O)C(=Cc2ccc3c(c2)N(Cc2ccc(F)c(Cl)c2)C(=O)CO3)S1 [Example 308, 5-[4-(3-Chloro-4-fluoro-benzyl)-3-oxo-3,4-dihydro-2H-benzo[1,4]oxazin-6-ylmethylene]-thiazolidine-2,4-dione]
185 nM	CC(C)N(CCCN1C(=O)COc2c(F)cc(C=C3SC(=S)NC3=O)cc21)C(C)C [Example 245, 4-(3-Diisopropylamino-propyl)-8-fluoro-6-(4-oxo-2-thioxo-thiazolidin-5-ylidenemethyl)-4H-benzo[1,4]oxazin-3-one]
4 nM	O=C1NC(=O)C(=Cc2ccc3c(c2)N(CC2CCCCC2)C(=O)CO3)S1 [Example 258, 5-(4-Cyclohexylmethyl-3-oxo-3,4-dihydro-2H-1,4-benzoxazin-6-ylmethylene)-thiazolidine-2,4-dione]

IC50	Compound
295 nM	CC1Oc2ccc(C=C3SC(=S)NC3=O)cc2N(Cc2ccc(CN3CCN(C)CC3)cc2)C1=O (stereo not shown) [Example 223, 2-Methyl-4-[4-(4-methyl-piperazin-1-ylmethyl)-benzyl]-6-(4-oxo-2-thioxo-thiazolidin-5-ylidenemethyl)-4H-1,4-benzoxazin-3-one]
180 nM	O=C1NC(=S)SC1=Cc1cc(F)c2c(c1)N(CCCN1CCCCC1)C(=O)CO2 [Example 243]
28 nM	Cc1cc(CN2C(=O)COc3ccc(C=C4SC(=S)NC4=O)cc32)nn1C [Example 329, 4-(1,5-Dimethyl-1H-pyrazol-3-ylmethyl)-6-(4-oxo-2-thioxo-thiazolidin-5-ylidenemethyl)-4H-1,4-benzoxazin-3-one]
15 nM	O=C1NC(=S)SC1=Cc1ccc2c(c1)N(CC1CC3C=CC1C3)C(=O)CO2 (stereo not shown) [Example 171, 4-Bicyclo[2.2.1]hept-5-en-2-ylmethyl-6-(4-oxo-2-thioxo-thiazolidin-5-ylidenemethyl)-4H-1,4-benzoxazin-3-one]
243 nM	O=C1NC(=S)S/C1=C\c1ccc2oc(=O)n(Cc3ccccc3)c2c1 [Example 290, 3-Benzyl-5-[4-oxo-2-thioxo-thiazolidin-(5Z)-ylidenemethyl]-3H-benzooxazol-2-one; Compound with Ethane-1,2-diamine]
14 nM	CS(=O)(=O)c1cccc(CN2C(=O)COc3c(F)cc(C=C4SC(=S)NC4=O)cc32)c1 [Example 269, 8-Fluoro-4-(3-methanesulfonyl-benzyl)-6-(4-oxo-2-thioxo-thiazolidin-5-ylidenemethyl)-4H-benzo[1,4]oxazin-3-one]
5 nM	Cc1ccc(CN2C(=O)COc3ccc(C=C4SC(=S)NC4=O)cc32)c(C)c1 [Example 100, 4-(2,4-Dimethyl-benzyl)-6-(4-oxo-2-thioxo-thiazolidin-5-ylidenemethyl)-4H-1,4-benzoxazin-3-one]
13 nM	CC(C)(O)c1cccc(CN2C(=O)COc3ccc(/C=C4\SC(=S)NC4=O)cc32)c1 [Example 282, 4-[3-(1-Hydroxy-1-methyl-ethyl)-benzyl]-6-[4-oxo-2-thioxo-thiazolidin-(5Z)-ylidenemethyl]-4H-benzo[1,4]oxazin-3-one; Compound with ethane-1,2-diamine]
315 nM	O=C1NC(=S)SC1=Cc1ccc2c(c1)N(CC(=O)c1ccc3c(c1)oc1ccccc13)C(=O)CO2 [Example 186, 4-(2-Dibenzofuran-3-yl-2-oxo-ethyl)-6-(4-oxo-2-thioxo-thiazolidin-5-ylidenemethyl)-4H-1,4-benzoxazin-3-one]
6 nM	O=C1NC(=O)C(=Cc2cc(F)c3c(c2)N(Cc2ccc(CN4CCCCC4)cc2)C(=O)CO3)S1 [Example 76, 5-[8-Fluoro-3-oxo-4-(4-piperidin-1-ylmethyl-benzyl)-3,4-dihydro-2H-1,4-benzoxazin-6-ylmethylene]-thiazolidine-2,4-dione]
125 nM	Cc1cc(C)nc(CN2C(=O)COc3ccc(C=C4SC(=S)NC4=O)cc32)n1 [Example 232, 4-(4,6-Dimethyl-pyrimidine-2-ylmethyl)-6-(4-oxo-2-thioxo-thiazolidin-5-ylidenemethyl)-4H-benzo[1,4]oxazin-3-one]
83 nM	Cc1cccc(C)c1CN1C(=O)COc2ccc(C=C3SC(=S)NC3=O)cc21 [Example 31, 4-(2,6-Dimethyl-benzyl)-6-(4-oxo-2-thioxo-thiazolidin-5-ylidenemethyl)-4H-1,4-benzoxazin-3-one]
8 nM	CS(=O)(=O)c1ccc(CN2C(=O)COc3ccc(C=C4SC(=S)NC4=O)cc32)cc1 [Example 192, 4-(4-Methanesulfonyl-benzyl)-6-(4-oxo-2-thioxo-thiazolidin-5-ylidenemethyl)-4H-1,4-benzoxazin-3-one]
13 nM	O=C1NC(=S)SC1=Cc1ccc2c(c1)N(Cc1ccoc1)C(=O)CO2 [Example 340, 4-Furan-3-ylmethyl-6-(4-oxo-2-thioxo-thiazolidin-5-ylidenemethyl)-4H-1,4-benzoxazin-3-one]
101 nM	O=C1NC(=S)O/C1=C\c1ccc2c(c1)N(Cc1cc(C(F)(F)F)cc(C(F)(F)F)c1)C(=O)CO2 [Example 271, 4-(3,5-Bis-trifluoromethyl-benzyl)-6-[4-oxo-2-thioxo-oxazolidin-(5Z)-ylidenemethyl]-4H-benzo[1,4]oxazin-3-one]
1030 nM	C[C@@H]1Oc2ccc(C=C3SC(=S)NC3=O)cc2N(Cc2ccc3ccccc3c2)C1=O [Example 152, (S)-2-Methyl-4-naphthalen-2-ylmethyl-6-(4-oxo-2-thioxo-thiazolidin-5-ylidenemethyl)-4H-benzo[1,4]oxazin-3-one]
10 nM	O=C1NC(=S)SC1=Cc1ccc2c(c1)N(Cc1ccccc1-c1ccccc1)C(=O)CO2 [Example 159, 4-Biphenyl-2-ylmethyl-6-(4-oxo-2-thioxo-thiazolidin-5-ylidenemethyl)-4H-1,4-benzoxazin-3-one]
